Experimental data as given in US9000045B2, “CETP activity inhibitors” (Japan Tobacco Inc., priority 1997, dated 2015).

The compounds below were run against T1, CETP (Homo sapiens, UniProt P11597) (assay: In vitro CETP activity inhibitory effect in whole plasma). Details: plasma from healthy subjects containing [3H]CE-HDL3, incubated 4 hours at 37° C.; read-out: CETP activity inhibition in whole plasma IC50.
T1 sequence (P11597 18-493): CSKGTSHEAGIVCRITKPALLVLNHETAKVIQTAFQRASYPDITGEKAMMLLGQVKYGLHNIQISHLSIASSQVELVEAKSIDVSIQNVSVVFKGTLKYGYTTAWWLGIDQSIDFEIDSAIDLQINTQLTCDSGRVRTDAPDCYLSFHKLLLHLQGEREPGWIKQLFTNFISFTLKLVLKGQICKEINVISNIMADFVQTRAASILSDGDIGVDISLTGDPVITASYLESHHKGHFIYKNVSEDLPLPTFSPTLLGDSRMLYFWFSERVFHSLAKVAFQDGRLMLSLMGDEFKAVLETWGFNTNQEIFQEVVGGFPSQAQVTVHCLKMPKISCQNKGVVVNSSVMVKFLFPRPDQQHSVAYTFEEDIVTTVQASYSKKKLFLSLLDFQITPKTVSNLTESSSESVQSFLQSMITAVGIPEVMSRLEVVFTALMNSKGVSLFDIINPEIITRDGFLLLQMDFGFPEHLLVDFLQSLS
Assay type: biochemical
Set-up: Plasma containing [^3H]CE-HDL3 (600,000 dpm/ml) was prepared by adding donor lipoprotein obtained in the above (1) to plasma from healthy subjects; from tissue; host or cells: whole plasma of healthy subjects
Description: The fraction thus obtained was dialyzed against a PBS solution [10 mM Na2HPO4/10 mM NaH2PO4/0.15 M NaCl/1 mM EDTA (pH 7.4)]. Then, tritium-labeled cholesterol (10 nM) (50.3 Ci/mM) was dissolved in 95% ethanol and added gradually to the above HDL3 fraction under stirring. The solution was incubated for 18 hours at 37° C. […] After incubation, KBr was added and specific gravity was adjusted to d=1.21 g/ml. […] A sample solution was prepared using a 1:1 solution of N-methylpyrrolidone and polyethyleneglycol 400 as a solvent. […] Based on the inhibition rate (%) of CETP activity, IC50 value of each sample was calculated.
An IC50 of 22 µM was found for `CC1(C(=O)Nc2ccccc2SC(=O)Cc2ccc(-c3ccccc3)cc2)CCCCC1` [Example 25-26] in this work. An IC50 of 3 µM was found for `CCCC(CCC)C(=O)Nc1ccccc1SSc1ccccc1NC(=O)C(CCC)CCC` [Example 5] in this work. An IC50 of 2 µM was found for `CC(C)CCC1(C(=O)Nc2ccccc2SSc2ccccc2NC(=O)C2(CCC(C)C)CCCC2)CCCC1` [Example 7] in this work. An IC50 of 25 µM was found for `CC(C)(C)C(=O)Nc1ccccc1SC(=O)Cc1cccc([N+](=O)[O-])c1` [Example 25-8] in this work. An IC50 of 10 µM was found for `CC(C)CCC1(C(=O)Nc2ccccc2SC(=O)[C@@H]2CCCN2C(=O)c2ccccc2)CCCCC1` [Example 25-55] in this work. An IC50 of 22 µM was found for `CC1(C(=O)Nc2ccccc2SC(=O)[C@H](N)c2ccccc2)CCCCC1` [Example 25-42] in this work. An IC50 of 26 µM was found for `CC1(C(=O)Nc2ccccc2SC(=O)[C@H](NC(=O)C2(C)CCCCC2)c2ccccc2)CCCCC1` [Example 25-41] in this work. An IC50 of 9 µM was found for `CC(=O)N[C@@H](C)C(=O)Sc1ccccc1NC(=O)C1(CCC(C)C)CCCCC1` [Example 25-44] in this work. An IC50 of 23 µM was found for `CC(C)CCC1(C(=O)Nc2ccccc2SC(=O)c2ccc(C(=O)Sc3ccccc3NC(=O)C3(CCC(C)C)CCCCC3)cc2)CCCCC1` [Example 25-48] in this work. An IC50 of 19 µM was found for `CC(C)(C)C(=O)Sc1cc(Cl)c(Cl)cc1NC(=O)[C@H]1CC[C@H](C)CC1` [Example 66-30] in this work. An IC50 of 9 µM was found for `CC(C)CCC1(C(=O)Nc2cc(Cl)c(Cl)cc2S)CCCC1` [Example 21] in this work. An IC50 of 23 µM was found for `CC1(C(=O)Nc2ccccc2SC(=O)Cc2ccccc2)CCCCC1` [Example 25-17] in this work. An IC50 of 22 µM was found for `CC(C)[C@H]1CC[C@H](C(=O)Nc2cc(Cl)c(Cl)cc2SC(=O)C(C)(C)C)CC1` [Example 66-32] in this work. An IC50 of 19 µM was found for `CC(C)(C)C(=O)Sc1cc(Cl)c(Cl)cc1NC(=O)[C@]12CCCC[C@@H]1CCCC2` [Example 66-22] in this work. An IC50 of 18 µM was found for `CC(=O)NCC(=O)Sc1ccccc1NC(=O)C1(C)CCCCC1` [Example 25-33] in this work. An IC50 of 35 µM was found for `CC1(C(=O)Nc2cc(C(F)(F)F)ccc2SC(=O)Cc2ccccc2)CCCCC1` [Example 25-66] in this work. An IC50 of 19 µM was found for `CCSC(=O)Sc1ccc(C(F)(F)F)cc1NC(=O)C1(C)CCCCC1` [Example 25-92] in this work. An IC50 of 40 µM was found for `CC(C)CC1(C(=O)Nc2cc(Cl)c(Cl)cc2SC(=O)C(C)(C)C)CCCC1` [Example 66-49] in this work. An IC50 of 18 µM was found for `CC1(C(=O)Nc2ccccc2SC(=O)Sc2ccccc2NC(=O)C2(C)CCCCC2)CCCCC1` [Example 25-95] in this work. An IC50 of 21 µM was found for `CC1(C(=O)Nc2cccc(CC(=O)Sc3ccccc3NC(=O)C3(C)CCCCC3)c2)CCCCC1` [Example 25-30] in this work. An IC50 of 23 µM was found for `CC1(C(=O)Nc2ccccc2SC(=O)[C@H](NC(=O)c2ccccc2)c2ccccc2)CCCCC1` [Example 25-40] in this work. An IC50 of 24 µM was found for `CC1(C(=O)Nc2cc(Cl)ccc2SC(=O)Cc2ccccc2)CCCCC1` [Example 66-3] in this work. An IC50 of 15 µM was found for `CCNC(=O)Sc1cc(Cl)c(Cl)cc1NC(=O)C1(C)CCCCC1` [Example 66-53] in this work. An IC50 of 23 µM was found for `CC(C)CCC1(C(=O)Nc2ccccc2SC(=O)c2ccccc2)CCCCC1` [Example 44] in this work. An IC50 of 24 µM was found for `O=C(Nc1ccccc1SSc1ccccc1NC(=O)c1ccncc1)c1ccncc1` [Example 1-7] in this work. An IC50 of 7 µM was found for `CCCCC1(C(=O)Nc2cc(Cl)c(Cl)cc2SC(=O)C(C)(C)C)CCCCC1` [Example 66-29] in this work. An IC50 of 6 µM was found for `COC(=O)CCC(=O)Sc1cc(Cl)c(Cl)cc1NC(=O)C1(CCC(C)C)CCCCC1` [Example 25-79] in this work. An IC50 of 22 µM was found for `CC1(C(=O)Nc2cc(C(F)(F)F)ccc2SC(=O)Sc2ccccc2)CCCCC1` [Example 25-93] in this work. An IC50 of 175 µM was found for `O=C(Nc1ccccc1SSc1ccccc1NC(=O)c1cccs1)c1cccs1` [Example 4] in this work. An IC50 of 21 µM was found for `CC1(C(=O)Nc2ccccc2SC(=O)c2cccnc2)CCCCC1` [Example 25-27] in this work. An IC50 of 9 µM was found for `CC(C)CCC1(C(=O)Nc2ccccc2SC(=O)C2CCN(C)CC2)CCCC1` [Example 25-65] in this work. An IC50 of 5 µM was found for `CC(C)CCC1(C(=O)Nc2ccccc2SSCC2CCCO2)CCCCC1` (stereo not drawn) [Example 83, 2-tetrahydrofurylmethyl 2-(1-isopentylcyclohexane-carbonylamino)phenyl disulfide] in this work. An IC50 of 2 µM was found for `CC(C)CCC1(C(=O)Nc2cc(Cl)c(Cl)cc2SC(=O)C(C)(C)C)CCCCC1` [Example 50] in this work. An IC50 of 28 µM was found for `CC1(C(=O)Nc2ccccc2SC(=O)Cc2ccc(Cl)cc2)CCCCC1` [Example 25-21] in this work. An IC50 of 8 µM was found for `CC1(C(=O)Nc2cc(C(F)(F)F)ccc2SC(=O)Sc2ccc(C(F)(F)F)cc2NC(=O)C2(C)CCCCC2)CCCCC1` [Example 25-96] in this work. An IC50 of 6 µM was found for `CCNC(=O)Sc1ccccc1NC(=O)C1(CCC(C)C)CCCCC1` [Example 25-99] in this work. An IC50 of 20 µM was found for `CC(=O)N[C@@H](C(=O)Sc1ccccc1NC(=O)C1(C)CCCCC1)c1ccccc1` [Example 25-38] in this work. An IC50 of 13 µM was found for `CC(C)(C)C(=O)Sc1cc(Cl)c(Cl)cc1NC(=O)[C@]12CCCC[C@@H]1CCC2` [Example 66-23] in this work. An IC50 of 21 µM was found for `CC(C)(C)OC(=O)Nc1ccccc1CC(=O)Sc1ccccc1NC(=O)C1(C)CCCCC1` [Example 25-34] in this work. An IC50 of 11 µM was found for `CC(C)(C)C(=O)Sc1cc(Cl)c(Cl)cc1NC(=O)C1(CCC2CC2)CCCCC1` [Example 66-48] in this work. An IC50 of 12 µM was found for `CC(C)CCC1(C(=O)Nc2cc(Cl)c(Cl)cc2SC(=O)NC(C)C)CCCCC1` [Example 25-103] in this work. An IC50 of 16 µM was found for `CC(C)CCC1(C(=O)Nc2cc(Cl)c(Cl)cc2S)CCCCC1` [Example 20] in this work. An IC50 of 158 µM was found for `CC(C)(C)C(=O)Nc1ccccc1SSc1ccccc1` [Example 84, phenyl 2-pivaloylaminophenyl disulfide] in this work. An IC50 of 40 µM was found for `CC(C)(C)C(=O)Sc1ccc(C(F)(F)F)cc1NC(=O)C1(C)CCCCC1` [Example 25-67] in this work. An IC50 of 74 µM was found for `CC(C)CCC1(C(=O)Nc2cc(Cl)c(Cl)cc2SC(=O)C(C)(C)C)CCCCCC1` [Example 72] in this work. An IC50 of 17 µM was found for `CC(C)CCC1(C(=O)Nc2cc(Cl)c(Cl)cc2SC(=O)C2CCCCC2)CCCCC1` [Example 25-82] in this work. An IC50 of 37 µM was found for `CC(C)CCC1(C(=O)Nc2cc(Cl)c(Cl)cc2SC(=O)C(C)(C)C)CCC1` [Example 73] in this work. An IC50 of 8 µM was found for `CC(C)CCC1(C(=O)Nc2ccccc2SC(=O)CCCCC(=O)O)CCCCC1` [Example 53] in this work. An IC50 of 26 µM was found for `CC(C)C(C(=O)Nc1cc(Cl)c(Cl)cc1SC(=O)C(C)(C)C)C1CCCCC1` (stereo not drawn) [Example 66-38] in this work. An IC50 of 6 µM was found for `CCCCCC1(C(=O)Nc2cc(Cl)c(Cl)cc2SC(=O)C(C)(C)C)CCCCC1` [Example 69] in this work. An IC50 of 45 µM was found for `CC(C)(C)C(=O)Sc1cc(Cl)c(Cl)cc1NC(=O)C1(CC2CCCCC2)CCCC1` [Example 66-51] in this work. An IC50 of 14 µM was found for `CC(C)CCC1(C(=O)Nc2cc(Cl)c(Cl)cc2SC(=O)c2ccccc2)CCCCC1` [Example 25-81] in this work. An IC50 of 22 µM was found for `CC(=O)N[C@H](C(=O)Sc1ccccc1NC(=O)C1(C)CCCCC1)c1ccccc1` [Example 25-39] in this work. An IC50 of 9 µM was found for `CCNC(=O)Sc1cc(Cl)c(Cl)cc1NC(=O)C1(CCC(C)C)CCCCC1` [Example 25-104] in this work. An IC50 of 27 µM was found for `CC(C)(C)C(=O)Sc1cc(F)c(F)cc1NC(=O)C1(C)CCCCC1` [Example 25-72] in this work. An IC50 of 28 µM was found for `CC(C)(C)C(=O)Nc1ccccc1CC(=O)Sc1ccccc1NC(=O)C(C)(C)C` [Example 25-13] in this work. An IC50 of 11 µM was found for `CC(C)CC(CC(C)C)C(=O)Nc1cc(Cl)c(Cl)cc1SC(=O)C(C)(C)C` [Example 66-14] in this work. An IC50 of 49 µM was found for `CC(C)CCC1(C(=O)Nc2ccccc2SC(=O)C2CCCCC2)CCCCC1` [Example 43] in this work. An IC50 of 5 µM was found for `CC1(C(=O)Nc2ccccc2SSc2ccccc2NC(=O)C2(C)CCCCC2)CCCCC1` [Example 6] in this work. An IC50 of 11 µM was found for `CC(C)(C)C(=O)Sc1cc(Cl)c(Cl)cc1NC(=O)C1(C2CCCCC2)CCCCC1` [Example 66-18] in this work. An IC50 of 10 µM was found for `CC(C(=O)Nc1cc(Cl)c(Cl)cc1SC(=O)C(C)(C)C)C1CCCCC1` (stereo not drawn) [Example 68] in this work. An IC50 of 12 µM was found for `COC(=O)Sc1ccccc1NC(=O)C1(CCC(C)C)CCCCC1` [Example 54] in this work. An IC50 of 19 µM was found for `CC(C)(C)C(=O)Sc1cc(Cl)c(Cl)cc1NC(=O)C1CCCCC1` [Example 66-25] in this work. An IC50 of 8 µM was found for `CC(C)(C)C(=O)Sc1cc(Cl)c(Cl)cc1NC(=O)C1CCC(C(C)(C)C)CC1` (stereo not drawn) [Example 66-26] in this work. An IC50 of 33 µM was found for `CC(C)(C)C(=O)Nc1ccccc1SC(=O)CCCc1ccccc1` [Example 25-12] in this work. An IC50 of 21 µM was found for `CCCCC(=O)Nc1ccccc1SSc1ccccc1NC(=O)CCCC` [Example 1-8] in this work. An IC50 of 6 µM was found for `CC(C)CC1(C(=O)Nc2ccccc2S)CCCCC1` [Example 18, N-(2-mercaptophenyl)-1-isobutylcyclohexanecarboxamide] in this work. An IC50 of 6 µM was found for `CC(C)CCC1(C(=O)Nc2cc(Cl)c(Cl)cc2SC(=O)c2cccnc2)CCCC1` [Example 25-87] in this work. An IC50 of 48 µM was found for `CC(C)(C)C(=O)Nc1ccccc1SC(=O)Cc1ccccc1NC(=O)C1(C)CCCCC1` [Example 25-20] in this work.
